IC50 data for 24 compounds are collected here from patent US20230192705A1, “SHP2 INHIBITORS, COMPOSITIONS AND USES THEREOF” (Betta Pharmaceuticals Co., Ltd, priority 2020, published 2023).

The target in this assay is T1, SHP2 (Homo sapiens, UniProt Q06124).
T1 sequence (Q06124 1-593): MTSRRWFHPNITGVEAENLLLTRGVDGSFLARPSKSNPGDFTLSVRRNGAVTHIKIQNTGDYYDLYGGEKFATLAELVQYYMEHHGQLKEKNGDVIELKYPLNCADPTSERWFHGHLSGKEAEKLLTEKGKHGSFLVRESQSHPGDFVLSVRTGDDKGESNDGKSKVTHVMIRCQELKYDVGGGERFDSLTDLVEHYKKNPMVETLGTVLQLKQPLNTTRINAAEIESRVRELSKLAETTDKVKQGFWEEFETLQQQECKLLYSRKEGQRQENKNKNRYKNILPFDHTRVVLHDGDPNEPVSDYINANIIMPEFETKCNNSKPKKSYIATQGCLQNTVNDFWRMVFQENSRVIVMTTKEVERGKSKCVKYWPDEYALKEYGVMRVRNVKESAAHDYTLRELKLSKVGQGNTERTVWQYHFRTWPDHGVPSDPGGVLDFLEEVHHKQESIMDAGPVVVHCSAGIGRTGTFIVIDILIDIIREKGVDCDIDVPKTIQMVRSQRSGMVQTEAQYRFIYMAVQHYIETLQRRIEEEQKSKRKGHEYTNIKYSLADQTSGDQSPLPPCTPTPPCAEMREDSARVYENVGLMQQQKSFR
The assay can be described thus: SHP2 allosteric inhibitor enzyme activity assay (DiFMUP fluorescence). Type of assay: biochemical. The note with it: class symbols. A digest of the protocol: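 SHP2 activated by 0.5 μM IRS1_pY1172(dPEG8)pY1222 peptide, 0.2 ng enzyme per well, 1 h at room temperature with compound (1 μM top, 3-fold series), then DiFMUP substrate 1 h. Buffer: 60 mM HEPES, 75 mM NaCl, 75 mM KCl, 0.05% BRIJ-35, 1 mM EDTA, 5 mM DTT. Fluorescence ex 340/em 450 nm; IC50 by variable-slope fit.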

Each structure is given as a SMILES string.

The term IC50 denotes the midpoint of a concentration-inhibition curve. In turn, `N[C@@H]1c2ccccc2CC12CCN(c1nc3[nH]nc(C4(c5c[nH]nn5)CC4)c3c(=O)[nH]1)CC2` [Example 253, (S)-3-(1-(1H-1,2,3-triazol-4-yl)cyclopropyl)-6-(1-amino-1,3-dihydrospiro[indene-2,4′-piperidin]-1′-yl)-1,5-dihydro-4H-pyrazolo[3,4-d]pyrimidin-4-one] gave an IC50 of no more than 20 nM.
Regarding `N[C@@H]1c2ccccc2CC12CCN(c1nc3[nH]nc(C4=C(F)CCc5ncccc54)c3c(=O)[nH]1)CC2` [Example 186, (S)-6-(1-amino-1,3-dihydrospiro[indene-2,4′-piperidin]-1′-yl)-3-(6-fluoro-7,8-dihydroquinolin-5-yl)-1,5-dihydro-4H-pyrazolo[3,4-d]pyrimidin-4-one], the half-maximal inhibitory concentration (IC50) is no more than 20 nM.
For `N[C@@H]1c2ccccc2CC12CCN(c1nc3[nH]nc(C4=CCOc5ccc(Cl)cc54)c3c(=O)[nH]1)CC2` [Example 135, (S)-6-(1-amino-1,3-dihydrospiro[indene-2,4′-piperidin]-1′-yl)-3-(6-chloro-2H-chromen-4-yl)-1,5-dihydro-4H-pyrazolo[3,4-d]pyrimidin-4-one], the concentration for half-maximal inhibition (IC50) was no more than 20 nM.
With `Cc1ncccc1C1(c2n[nH]c3nc(N4CCC5(CC4)Cc4ccccc4[C@H]5N)[nH]c(=O)c23)CC1` [Example 89] the figure was no more than 20 nM; with `Nc1nccc(C2(c3n[nH]c4nc(N5CCC6(CC5)Cc5ccccc5[C@H]6N)[nH]c(=O)c34)CC2)c1F` [Example 59, (S)-6-(1-amino-1,3-dihydrospiro[indene-2,4′-piperidin]-1′-yl)-3-(1-(2-amino-3-fluoropyridin-4-yl)cyclopropyl)-1,5-dihydro-4H-pyrazolo[3,4-d]pyrimidin-4-one], no more than 20 nM; with `N[C@@H]1c2ccccc2CC12CCN(c1nc3[nH]nc(C4=CCC(F)(F)c5ccccc54)c3c(=O)[nH]1)CC2` [Example 123, (S)-6-(1-amino-1,3-dihydrospiro[indene-2,4′-piperidin]-1′-yl)-3-(4,4-difluoro-3,4-dihydronaphtlialen-1-yl)-1,5-dihydro-4H-pyrazolo[3,4-d]pyrimidin-4-one], no more than 20 nM.
`N[C@@H]1c2ccccc2CC12CCN(c1nc3[nH]nc(C4(c5cccc(Cl)c5Cl)CC4)c3c(=O)[nH]1)CC2` [Example 49, (S)-6-(1-amino-1,3-dihydrospiro[indene-2,4′-piperidin]-1′-yl)-3-(1-(2,3-dichlorophenyl)cyclopropyl)-1,5-dihydro-4H-pyrazolo[3,4-d]pyrimidin-4-one] yielded an IC50 of no more than 20 nM.
With `COc1cccc(C2(c3n[nH]c4nc(N5CCC6(CC5)CO[C@@H](C)[C@H]6N)[nH]c(=O)c34)CC2)c1` [Example 305, 6-((3S,4S)-4-amino-3-methyl-2-oxa-8-azaspiro[4.5]decan-8-yl)-3-(1-(3-methoxyphenyl)cyclopropyl)-1,5-dihydro-4H-pyrazolo[3,4-d]pyrimidin-4-one] the figure was 20 to 60 nM.
`C[C@@H]1OCC2(CCN(c3nc4[nH]nc(C5(c6cccnc6)CC5)c4c(=O)[nH]3)CC2)[C@@H]1N` [Example 275, 6-((3S,4S)-4-amino-3-methyl-2-oxa-8-azaspiro[4.5]decan-8-yl)-3-(1-(pyridin-3-yl)cyclopropyl)-1,5-dihydro-4H-pyrazolo[3,4-d]pyrimidin-4-one] yielded an IC50 of 20 to 60 nM.
For `N[C@@H]1c2ccccc2CC12CCN(c1nc3[nH]nc(C4=CCCc5ccccc54)c3c(=O)[nH]1)CC2` [Example 111, (S)-6-(1-amino-1,3-dihydrospiro[indene-2,4′-piperidin]-1′-yl)-3-(3,4-dihydronaphthalen-1-yl)-1,5-dihydro-4H-pyrazolo[3,4-d]pyrimidin-4-one], the IC50 is no more than 20 nM.
The result for `N#Cc1nnc(C2(c3n[nH]c4nc(N5CCC6(CC5)Cc5ccccc5[C@H]6N)[nH]c(=O)c34)CC2)s1` [Example 238, (S)-5-(1-(6-(1-amino-1,3-dihydrospiro[indene-2,4′-piperidin]-1′-yl)-4-oxo-4,5-dihydro-1H-pyrazolo[3,4-d]pyrimidin-3-yl)cyclopropyl)-1,3,4-thiadiazole-2-carbonitrile] reads no more than 20 nM; that for `N[C@@H]1c2ccccc2CC12CCN(c1nc3[nH]nc(C4=CCCc5nc(C6CC6)cc(C(F)(F)F)c54)c3c(=O)[nH]1)CC2` [Example 141, (S)-6-(1-amino-1,3-dihydrospiro[indene-2,4′-piperidin]-1′-yl)-3-(2-cyclopropyl-4-(trifluoromethyl)-7,8-dihydroquinolin-5-yl)-1,5-dihydro-4H-pyrazolo[3,4-d]pyrimidin-4-one], 20 to 60 nM.
In turn, `Cc1nc(N2CCC3(CC2)CO[C@@H](C)[C@H]3N)c(CO)nc1C1(c2ccccc2)CC1` [Example 261, (3-((3S,4S)-4-amino-3-methyl-2-oxa-8-azaspiro[4.5]decan-8-yl)-5-methyl-6-(1-phenylcyclopropyl)pyrazin-2-yl)methanol] showed an IC50 greater than 60 nM.
`CC1(C)CC1(c1ccccc1)c1n[nH]c2nc(N3CCC4(CC3)Cc3ccccc3[C@H]4N)[nH]c(=O)c12` (stereo partly drawn) [Example 5, 6-((S)-1-amino-1,3-dihydrospiro[indene-2,4′-piperidin]-1′-yl)-3-(2,2-dimethyl-1-phenylcyclopropyl)-1,5-dihydro-4H-pyrazolo[3,4-d]pyrimidin-4-one] had an IC50 greater than 60 nM.
With `N#Cc1ccc2c(c1)[C@@H](N)C1(CCN(c3nc4[nH]nc(C5(c6ccccc6)CC5)c4c(=O)[nH]3)CC1)C2` [Example 197, (S)-1-amino-1′-(4-oxo-3-(1-phenylcyclopropyl)-4,5-dihydro-1H-pyrazolo[3,4-d]pyrimidin-6-yl)-1,3-dihydrospiro[indene-2,4′-piperidine]-6-carbonitrile], the concentration for half-maximal inhibition (IC50) is no more than 20 nM.
With `N[C@@H]1c2ccccc2CC12CCN(c1cnc3c(C4(c5ccccc5)CC4)n[nH]c3n1)CC2` [Example 2, (S)-1′-(3-(1-phenylcyclopropyl)-1H-pyrazolo[3,4-b]pyrazin-6-yl)-1,3-dihydrospiro[indene-2,4′-piperidin]-1-amine] the figure was no more than 20 nM; with `C[C@@H]1OCC2(CCN(c3nc4[nH]nc(C5(c6nccs6)CC5)c4c(=O)[nH]3)CC2)[C@@H]1N` [Example 277, 6-((3S,4S)-4-amino-3-methyl-2-oxa-8-azaspiro[4.5]decan-8-yl)-3-(1-(thiazol-2-yl)cyclopropyl)-1,5-dihydro-4H-pyrazolo[3,4-d]pyrimidin-4-one], 20 to 60 nM; with `N[C@@H]1c2ccccc2CC12CCN(c1nc3[nH]nc(C4(c5cccc(CO)c5)CC4)c3c(=O)[nH]1)CC2` [Example 226, (S)-6-(1-amino-1,3-dihydrospiro[indene-2,4′-piperidin]-1′-yl)-3-(1-(3-(hydroxymethyl)phenyl)cyclo-propyl)-1,5-dihydro-4H-pyrazolo[3,4-d]pyrimidin-4-one], no more than 20 nM.
As for `Nc1nccc(C2(c3n[nH]c4nc(N5CCC6(CC5)Cc5ccccc5[C@H]6N)[nH]c(=O)c34)CC2)c1Cl` [Example 46, (S)-6-(1-amino-1,3-dihydrospiro[indene-2,4′-piperidin]-1′-yl)-3-(1-(2-amino-3-chloropyridin-4-yl)cyclopropyl)-1,5-dihydro-4H-pyrazolo[3,4-d]pyrimidin-4-one], the concentration for half-maximal inhibition (IC50) was no more than 20 nM.
On to `Cc1ncc2c(n1)CC(C)(C)C=C2c1n[nH]c2nc(N3CCC4(CC3)Cc3ccccc3[C@H]4N)[nH]c(=O)c12` [Example 147, (S)-6-(l-amino-1,3-dihydrospiro[indene-2,4'-piperidin]-1′-yl)-3-(2,7,7-trimethyl-7,8-dihydroquinazolin-5-yl)-1,5-dihydro-4H-pyrazolo[3,4-d]pyrimidin-4-one], for which the half-inhibitory concentration (IC50) was no more than 20 nM.
With `N[C@@H]1c2ccccc2CC12CCN(c1nc3[nH]nc(C4(c5ccccc5C(F)(F)F)CC4)c3c(=O)[nH]1)CC2` [Example 15, (S)-6-(1-amino-1,3-dihydrospiro[indene-2,4′-piperidin]-1′-yl)-3-(1-(2-(trifluoromethyl)phenyl)cyclo-propyl)-1,5-dihydro-4H-pyrazolo[3,4-d]pyrimidin-4-one], the half-inhibitory concentration (IC50) is no more than 20 nM.
`C[C@@H]1OCC2(CCN(c3nc4[nH]nc(C5(c6cccc(Cl)c6Cl)CC5)c4c(=O)[nH]3)CC2)[C@@H]1N` [Example 309, 6-((3S,4S)-4-amino-3-methyl-2-oxa-8-azaspiro[4.5]decan-8-yl)-3-(1-(2,3-dichlorophenyl)cyclopropyl)-1,5-dihydro-4H-pyrazolo[3,4-d]pyrimidin-4-one]: the half-inhibitory concentration (IC50) is 20 to 60 nM.
As to `C[C@@H]1OCC2(CCN(c3nc4[nH]nc(C5(c6ccc7ocnc7c6)CC5)c4c(=O)[nH]3)CC2)[C@@H]1N` [Example 287, 6-((3S,4S)-4-amino-3-methyl-2-oxa-8-azaspiro[4.5]decan-8-yl)-3-(1-(benzo[d]oxazol-5-yl)cyclopropyl)-1,5-dihydro-4H-pyrazolo[3,4-d]pyrimidin-4-one], the half-maximal inhibitory concentration (IC50) lay in the range of 20 to 60 nM.
The result for `N[C@@H]1c2ccccc2CC12CCN(c1nc3[nH]nc(C4(c5ccccc5)CCC4)c3c3nncn13)CC2` [Example 92, (S)-1′-(9-(1-phenylcyclobutyl)-7H-pyrazolo[4,3-e][1,2,4]triazolo[4,3-c]pyrimidin-5-yl)-1,3-dihydrospiro[indene-2,4′-piperidin]-1-amine] reads no more than 20 nM.
